Assay results as given in US20240130690A1, “NON-INVASIVE DETERMINATION OF A PHY[…] OF INTEREST IN A SUBJECT FROM SPECTRAL DATA PROCESSED USING A TRAINED MACHINE LEARNING MODEL” (ISBRG CORP., priority 2021, published 2024).

Assays:
[1] = Analyte composition of a subject after cannabis consumption (illustrative Table 2); assay type: in vivo, human; conditions: simplified data set to exemplify the method; for Analyte level, intoxicated state: 1 hr after consumption; for Analyte level, post-intoxicated state: 36 hr after consumption
Excerpt: For example, which is not to be considered limiting, in a THC induced intoxicated sate, a subject may comprise the analyte composition presented in Table 1. It is to be understood that this table presents a simplified data set to exemplify the method described herein. Other analytes, which may include known analytes or ghost analytes, are indicated as analytes A, B . . . C; A′, B′, . . . C′; A″, B″ . . . C″. These other analytes may increase or decrease in response to, or that are correlated with, the physiological condition and they may be included in this analysis.
In this example, the result may be considered positive for a THC-induced intoxicated state if the Index is greater than a preset value which is determined based on an analysis of the analytes determined in subjects who were exposed to a control treatment, or a range of THC under controlled conditions, for example an Index value of (2+A)/(C+ . . . +C) may be an indication of a positive result for the state of THC-induced intoxication.

[2] = cited from earlier work

Row | SMILES | Analyte level, intoxicated state [1] [ng/mL] | Analyte level, post-intoxicated state [1] [ng/mL] | residual THC in serum ([2]; chronic users of marijuana, detected for 24 to 48 hours or longer, serum) [ng/mL] | residual THC in whole blood ([2]; chronic users of marijuana, detected for 24 to 48 hours or longer, whole blood) [ng/mL] | time of THC peak after inhaling ([2]; smoked marijuana) | THC level remaining ([2]; smoked marijuana, for 8 hours or more) [ng/mL]
1 | CCCCCc1cc(O)c2c(c1)OC(C)(C)C1CCC(CO)=CC21 (stereo not shown) [11-OH-THC, 11-hydroxy THC] | 5 | 2 |  |  |  | 
2 | CCCCCc1cc(O)c2c(c1)OC(C)(C)[C@@H]1CCC(C(=O)O)=C[C@@H]21 [THC-COOH, 11-nor-9-carboxy-THC] | 5 | 11 |  |  |  | 
3 | CCCCCc1cc(O)c2c(c1)OC(C)(C)[C@@H]1CCC(C)=C[C@@H]21 [THC, delta-9-tetrahydrocannabinol] | 78 | 8 | 1.0 to 6.4 | 0.5 to 3.2 | first few minutes | 1 to 2
